Patent publication US10155004B2, “17-hydroxy-17-pentafluoroethyl-estra-4,9(10)-dien-11-aryl derivatives, method of production thereof and use thereof for the treatment of diseases” (BAYER INTELLECTUAL PROPERTY GMBH, priority 2009, dated 2018)

How the values were obtained:
[1] = biological target: T1, human progesterone receptor A (Homo sapiens, UniProt P06401); experiment: Progesterone receptor-antagonistic action in stably transfected SK-N-MC cells, MTV-LUC reporter (PR-A); assay type: cell-based; conditions: antagonistic efficacy vs 0.1 nmol/l promegestone
T1 construct: expressed in transfected cells; host or cells: SK-N-MC human neuroblastoma cells, stably transfected
T1 sequence (P06401 1-769 isoform P06401-2): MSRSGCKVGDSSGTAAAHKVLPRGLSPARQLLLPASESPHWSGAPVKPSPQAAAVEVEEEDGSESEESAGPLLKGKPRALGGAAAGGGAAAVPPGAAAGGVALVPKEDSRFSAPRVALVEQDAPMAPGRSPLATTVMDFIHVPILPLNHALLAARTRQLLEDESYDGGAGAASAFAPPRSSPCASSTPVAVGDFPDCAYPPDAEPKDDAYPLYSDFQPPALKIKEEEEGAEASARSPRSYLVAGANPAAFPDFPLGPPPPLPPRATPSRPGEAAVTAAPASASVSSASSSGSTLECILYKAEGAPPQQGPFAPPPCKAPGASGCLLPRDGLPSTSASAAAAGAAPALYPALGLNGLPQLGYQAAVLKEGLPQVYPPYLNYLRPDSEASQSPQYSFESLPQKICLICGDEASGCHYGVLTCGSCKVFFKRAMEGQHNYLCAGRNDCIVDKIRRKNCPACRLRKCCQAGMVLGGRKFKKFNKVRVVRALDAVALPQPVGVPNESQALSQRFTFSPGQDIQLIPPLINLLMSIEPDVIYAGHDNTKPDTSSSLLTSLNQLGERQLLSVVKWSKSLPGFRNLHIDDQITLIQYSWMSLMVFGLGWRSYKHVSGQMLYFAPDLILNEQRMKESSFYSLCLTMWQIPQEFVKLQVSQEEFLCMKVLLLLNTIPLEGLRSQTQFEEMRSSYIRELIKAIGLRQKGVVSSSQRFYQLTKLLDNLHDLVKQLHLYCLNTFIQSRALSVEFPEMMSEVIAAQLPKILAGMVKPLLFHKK
Description: EXAMPLE 16 PROGESTERONE RECEPTOR-ANTAGONISTIC ACTION IN STABLE TRANSFECTANTS OF HUMAN NEUROBLASTOMA CELLS (SK-N-MC CELLS) WITH THE HUMAN PROGESTERONE A OR PROGESTERONE B RECEPTOR AND AN MTV-LUC REPORTER CONSTRUCT
SK-N-MC cells (human neuroblastoma cells), which have been stably transfected with plasmids, which express the human progesterone receptor B (pRChPR-B-neo) or the human progesterone receptor A (pRChPR-A-neo) and a reporter construct (pMMTV-LUC), were incubated for 24 hours either in the absence (negative control) or in the presence of increasing amounts of the respective test compound (0.01 nmol/l, 0.1 nmol/l 1 nmol/l, 10 nmol/l, 100 nmol/l and 1 μmol/l), in order to determine the agonistic efficacy. As positive control of reporter gene induction, the cells were treated with the synthetic gestagen promegestone (0.01 nmol/l, 0.1 nmol/l, 1 nmol/l, 10 nmol/l, 100 nmol/l and 1 μmol/l). For determination of the antagonistic activity, the cells were treated with 0.1 nmol/1 promegestone and additionally with increasing amounts of the respective test compound (0.01 nmol/l, 0.1 nmol/l, 1 nmol/l, 10 nmol/l, 100 nmol/l and 1 μmol/l). The activity of the LUC reporter gene (LUC=luciferase) was determined in the cell lysates and was measured as RLU (relative light units). All measured values are given as percentage efficacy and as EC50 or IC50 concentrations.
11β-(4-Acetylphenyl)-20,20,21,21,21-pentafluoro-17-hydroxy-19-nor-17α-pregna-4,9-dien-3-one and 20,20,21,21,21-pentafluoro-17-hydroxy-11β-[4-(hydroxyacetyl)phenyl]-19-nor-17α-pregna-4,9-dien-3-one, very potent and therefore preferred examples from WO98/34947 and WO2008/058767, were tested as comparative compounds along with the test compound.

rodents and non-rodents = conditions: in vivo
[2] = Metabolic stability in human liver microsomes (HLM); assay type: in vitro ADME; conditions: from HLM half-life, well-stirred model, phase I reactions; 1 μM, 0.5 mg/ml protein
Description: EXAMPLE 18 METABOLIC STABILITY OF (11β,17β)-17-HYDROXY-11[4-(METHYLSULPHONYL)PHENYL]-17-(PENTAFLUOROETHYL)ESTRA-4,9-DIEN-3-ONE AND (11β,17β)-17-HYDROXY-11-[4′-(METHYLSULPHONYL)-BIPHENYL-4-YL]-17-(PENTAFLUOROETHYL)ESTRA-4,9-DIEN-3-ONE IN HUMAN LIVER MICROSOMES (HLM)
Isolated human liver microsomes (HLM) were used for assessing the metabolic stability of compounds of general formula I.
Incubations were carried out with 2.4 ml of HLM solution (0.5 mg/ml protein content), 30 μl of the test compound (final concentration 1 μM) and 0.6 ml of the cofactor mixture (=NADPH-generating system of 3 IU glucose-6-phosphate dehydrogenase, 14.6 mg glucose-6-phosphate, 1.2 mg NADP) at 37° C. in 100 mM phosphate buffer at pH 7.4. Samples are taken at 6 time points (2-60 min), precipitated with an equal volume of methanol and the recovery of the test substances used in the supernatant is determined by LC-MS/MS analysis. The intrinsic clearance of the substance in the liver microsome preparation can be calculated from the half-life found for the breakdown of the substance. Based on this, together with various physiological characteristics according to the well-stirred model, it is then possible to predict a (metabolic) in vivo clearance with respect to phase I reactions. […]

C[C@]12C[C@H](c3ccc(S(C)(=O)=O)cc3)C3=C4CCC(=O)C=C4CC[C@H]3[C@@H]1CC[C@@]2(O)C(F)(F)C(F)(F)F [Example 4, (11β,17β)-17-Hydroxy-11-[4-(methylsulphonyl)phenyl]-17-(pentafluoroethyl)estra-4,9-dien-3-one]
Progesterone receptor A (PR-A) Efficacy [1]: 100% | safety profile (rodents and non-rodents): especially favourable safety profile | (metabolic) in vivo clearance in humans predicted [2]: 1.7 mL/min/kg
